pIC50: −log10 of the molar value.
Columns and labels:
[1] = Binding affinity to Agglutinin was evaluated; design: species or system Arachis hypogaea
[2] = system: Erythrina corallodendron; assay: Binding affinity to Erythrina corallodendron lectin was evaluated; format: functional
[3] = Binding affinity to soybean agglutinin was evaluated; design: species or system Glycine max

| pIC50 [1] | pIC50 [2] | pIC50 [3] | Structure (SMILES) |
| --- | --- | --- | --- |
| 2.71 | 2.82 | 2.89 | CC(=O)N[C@@H]1[C@H](Oc2cccc3ccccc23)O[C@@H](CO)[C@@H](O)[C@@H]1O |
| 2.60 | 2.94 | 2.76 | CC(=O)N[C@@H]1[C@H](Oc2ccccc2)O[C@@H](CO)[C@@H](O)[C@@H]1O |

From ChEMBL document CHEMBL1133491, “Synthesis and binding to plant lectins of sulfur-containing analogues of betaGal1,3 alphaGalNAc (T-antigen)” (Bioorg Med Chem Lett, 2000)
